System: STC-1 cells
Test: Cell culture test: GLP-1 secretion from enteroendocrine STC-1 cells (ELISA)
Assay type: cell-based
Conditions: for GLP-1 CONCENTRATION: 30 minutes after sample, mean±standard error; for Effect on GLP-1 secretion from STC-1 cells (in words): 0.01-1.0 mM
Protocol: By carrying out a cell culture test (in vitro test) by the following method, and administering various medium chain fatty acids (capric acid or lauric acid, both are a free form) to enteroendocrine cells (STC-1 cells), an effect of each medium chain fatty acid on GLP-1 secretion was examined. The above medium chain fatty acids correspond to GPR84 agonists. To the same dimethyl sulfoxide (1 ml) as in the (1-1) above, 172 mg of capric acid (trade name “Decanoic Acid <Capric Acid>”, manufactured by New Check Prep) was added to obtain 1000 mM of capric acid samples. A 1000 mM capric acid sample (0.1 ml) was added to dimethylsulfoxide (0.9 ml) to obtain a 100 mM capric acid sample. A 100 mM capric acid sample (0.1 ml) was added to dimethylsulfoxide (0.9 ml) to obtain a 10 mM capric acid sample. Note here that when capric acid was added to dimethylsulfoxide, a mixture was mixed while heating to prepare a sample having a uniform capric acid concentration. To the same dimethylsulfoxide (1 ml) as in the (1-1) above, 200 mg of lauric acid (trade name “Dodecanoic Acid <Lauric Acid>”, manufactured by New Check Prep) was added to obtain 1000 mM of lauric acid sample. A 1000 mM lauric acid sample (0.1 ml) was added to dimethylsulfoxide (0.9 ml) to obtain a 100 mM lauric acid sample. A 100 mM lauric acid sample (0.1 ml) was added to dimethylsulfoxide (0.9 ml) to obtain a 10 mM lauric acid sample. Note here that when lauric acid was added to dimethyl sulfoxide, the mixture was mixed while heating to prepare a sample having a uniform lauric acid concentration. STC-1 cells (trade name “STC-1”, manufactured by American Type Culture Collection) were cultured in a medium at 37° C. in 5% CO2 for 48 hours to obtain STC-1 cells for testing. Note here that as the medium, a DMEM medium (trade name “Dulbecco's Modified Eagle Medium (High Glucose)”, manufactured by Sigma-Aldrich) including 15% horse serum (trade name “Horse Serum, New Zealand origin”, manufactured by Gibco) and 5% fetal bovine serum (trade name “Fetal Bovine Serum (FBS) Standard, Origin South America”, manufactured by Cosmo Bio) was used. The culture medium for STC-1 cells was replaced with a serum-free medium (300 μl/well), starvation was carried out for 30 minutes, then the serum-free medium was replaced with a new serum-free medium (300 μl/well), and 0.3 μl each of any one of samples was added to each well. Thirty minutes after administration of the sample, the medium was collected and mixed in a 1.5 ml tube in which 3 μL of DPP4 inhibitor (trade name “DPP IV Inhibitor”, manufactured by Sigma-Aldrich) had been placed in advance. Then, each tube was centrifuged at 4° C. at 1,000×g for 5 minutes, and the supernatant was collected in a new 1.5 ml tube. GLP-1 concentration (nM) in the collected supernatant was measured. Note here that the GLP-1 concentration was measured by ELISA method using a commercially available kit (trade name “Glucagon Like Peptide-1 (Active) ELISA”, manufactured by Sigma-Aldrich). In the data of FIG. 1 and Table 1, the measured values of GLP-1 concentration are expressed as “mean±standard error”. Dunnet's test was used to test significant differences between trials, and significant differences were determined to exist when the risk rate was less than 5% (*p<0.05). Also, the sample concentrations in FIG. 1 and Table 1 indicate the concentrations in the medium in the cell culture test.

| Compound | GLP-1 CONCENTRATION (0.01 mM in medium) | GLP-1 CONCENTRATION (0.1 mM in medium) | GLP-1 CONCENTRATION (1.0 mM in medium) | Effect on GLP-1 secretion from STC-1 cells (in words) |
| --- | --- | --- | --- | --- |
| CCCCCCCCCC(=O)O [Capric acid, capric acid (n-decanoic acid)] | 1.235 ± 0.120 nM | 1.517 ± 0.005 nM | 4.629 ± 0.087 * nM | promoted GLP-1 secretion |
| CCCCCCCCCCCC(=O)O [Lauric acid, lauric acid] | 1.827 ± 0.060 * nM | 3.915 ± 0.197 * nM | 4.268 ± 0.084 * nM | promoted GLP-1 secretion |
